Experimental data published in patent US4803199A, “Pharmaceutically useful heterocyclic and carbocyclic acid esters and amides of alkylene bridged piperidines” (priority 1987, dated 1989).

Tests used:
[1] = tested on: M receptors for serotonin; conditions: isolated rabbit vagus nerve; cited from earlier work
serotonin M receptor = target: T1, serotonin M receptor (Oryctolagus cuniculus, UniProt A0A5F9C9J3); assay: inhibition of the effect of serotonin on the isolated rabbit heart; conditions: rabbit heart test, antagonism of serotonin; read-out: pA2 value (converted)
T1 construct: isolated rabbit heart; from tissue; host or cells: isolated rabbit heart
T1 sequence (A0A5F9C9J3 1-494): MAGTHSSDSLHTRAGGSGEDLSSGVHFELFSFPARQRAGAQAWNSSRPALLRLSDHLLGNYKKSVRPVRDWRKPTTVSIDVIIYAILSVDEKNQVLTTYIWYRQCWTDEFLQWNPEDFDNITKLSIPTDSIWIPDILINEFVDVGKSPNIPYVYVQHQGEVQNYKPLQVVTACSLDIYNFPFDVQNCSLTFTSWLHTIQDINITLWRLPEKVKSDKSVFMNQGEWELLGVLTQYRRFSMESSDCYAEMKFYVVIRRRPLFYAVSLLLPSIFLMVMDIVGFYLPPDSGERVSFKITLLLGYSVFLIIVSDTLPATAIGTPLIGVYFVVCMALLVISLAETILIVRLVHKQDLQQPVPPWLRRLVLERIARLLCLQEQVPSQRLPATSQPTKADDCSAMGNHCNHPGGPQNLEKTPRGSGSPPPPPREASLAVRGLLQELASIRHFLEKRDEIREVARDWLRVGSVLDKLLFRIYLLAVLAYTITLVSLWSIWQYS
Excerpt: The serotonin M receptor antagonist activity is also indicated by inhibiting the effect of serotonin on the isolated rabbit heart according to the method of J. R. Fozard and A. T. Moborak Ali, European Journal of Pharmacology, (1978) 49, 109-112 at concentrations of 10^-11 to 10^-5 M of the compound of the invention. pD'2 or pA2 values may be calculated in the conventional manner.

M receptors = conditions: blister base on forearm of human volunteers; cited from earlier work

| Compound | block of the action of serotonin on C fibre action potential amplitude [1] | Kb (serotonin M receptor) [nM] | also measured |
| --- | --- | --- | --- |
| CCN(CC)C(=O)[C@@H]1C=C2c3cccc4[nH]c(Br)c(c34)C[C@H]2N(C)C1 [BOL-148] | not blocked |  |  |
| COc1cc(N(C)C)ccc1C(=O)O[C@@H]1C[C@H]2CC[C@@H](C1)N2Cc1ccccc1 [Example C-2] |  | 0.01 |  |
| CCN(CC)C(=O)[C@@H]1C=C2c3cccc4[nH]cc(c34)C[C@H]2N(C)C1 [lysergic acid diethylamide] |  |  | inhibition of the algesic action of serotonin (M receptors): not inhibited |
| CC[C@@H](CO)NC(=O)[C@@H]1C=C2c3cccc4c3c(cn4C)C[C@H]2N(C)C1 [methysergide] | not blocked |  |  |
| CSc1ccc2c(c1)C(N1CCN(C)CC1)Cc1ccccc1S2 (stereo not drawn) [metitepine] | not blocked |  |  |
| CCN(CC)CCNC(=O)c1cc(Cl)c(N)cc1OC [metoclopramide] |  | 79.4 |  |
